Results published in patent US10052306B2 (LUC THERAPEUTICS, INC., priority 2013, dated 2018).
Where two headings read alike, the source gives them in different places.

Key:
NR1/NR2B [1] = target: NR1/NR2B (Homo sapiens (Human), UniProt Q05586+Q13224); experiment: Cell assay: FDSS Ca2+ influx inhibition in HEK293 cells expressing NR1/NR2B; details: Binned Activity;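 further: Fluo-8 Ca2+ signal read on Hamamatsu FDSS 6000 after glutamate, glycine and Ca2+ challenge following 10 min compound preincubation, end/baseline fluorescence ratio compared with MK801 control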
Sequence of NR1/NR2B (Homo sapiens (Human), UniProt Q05586+Q13224) (Q13224 27-1484, other chains not shown): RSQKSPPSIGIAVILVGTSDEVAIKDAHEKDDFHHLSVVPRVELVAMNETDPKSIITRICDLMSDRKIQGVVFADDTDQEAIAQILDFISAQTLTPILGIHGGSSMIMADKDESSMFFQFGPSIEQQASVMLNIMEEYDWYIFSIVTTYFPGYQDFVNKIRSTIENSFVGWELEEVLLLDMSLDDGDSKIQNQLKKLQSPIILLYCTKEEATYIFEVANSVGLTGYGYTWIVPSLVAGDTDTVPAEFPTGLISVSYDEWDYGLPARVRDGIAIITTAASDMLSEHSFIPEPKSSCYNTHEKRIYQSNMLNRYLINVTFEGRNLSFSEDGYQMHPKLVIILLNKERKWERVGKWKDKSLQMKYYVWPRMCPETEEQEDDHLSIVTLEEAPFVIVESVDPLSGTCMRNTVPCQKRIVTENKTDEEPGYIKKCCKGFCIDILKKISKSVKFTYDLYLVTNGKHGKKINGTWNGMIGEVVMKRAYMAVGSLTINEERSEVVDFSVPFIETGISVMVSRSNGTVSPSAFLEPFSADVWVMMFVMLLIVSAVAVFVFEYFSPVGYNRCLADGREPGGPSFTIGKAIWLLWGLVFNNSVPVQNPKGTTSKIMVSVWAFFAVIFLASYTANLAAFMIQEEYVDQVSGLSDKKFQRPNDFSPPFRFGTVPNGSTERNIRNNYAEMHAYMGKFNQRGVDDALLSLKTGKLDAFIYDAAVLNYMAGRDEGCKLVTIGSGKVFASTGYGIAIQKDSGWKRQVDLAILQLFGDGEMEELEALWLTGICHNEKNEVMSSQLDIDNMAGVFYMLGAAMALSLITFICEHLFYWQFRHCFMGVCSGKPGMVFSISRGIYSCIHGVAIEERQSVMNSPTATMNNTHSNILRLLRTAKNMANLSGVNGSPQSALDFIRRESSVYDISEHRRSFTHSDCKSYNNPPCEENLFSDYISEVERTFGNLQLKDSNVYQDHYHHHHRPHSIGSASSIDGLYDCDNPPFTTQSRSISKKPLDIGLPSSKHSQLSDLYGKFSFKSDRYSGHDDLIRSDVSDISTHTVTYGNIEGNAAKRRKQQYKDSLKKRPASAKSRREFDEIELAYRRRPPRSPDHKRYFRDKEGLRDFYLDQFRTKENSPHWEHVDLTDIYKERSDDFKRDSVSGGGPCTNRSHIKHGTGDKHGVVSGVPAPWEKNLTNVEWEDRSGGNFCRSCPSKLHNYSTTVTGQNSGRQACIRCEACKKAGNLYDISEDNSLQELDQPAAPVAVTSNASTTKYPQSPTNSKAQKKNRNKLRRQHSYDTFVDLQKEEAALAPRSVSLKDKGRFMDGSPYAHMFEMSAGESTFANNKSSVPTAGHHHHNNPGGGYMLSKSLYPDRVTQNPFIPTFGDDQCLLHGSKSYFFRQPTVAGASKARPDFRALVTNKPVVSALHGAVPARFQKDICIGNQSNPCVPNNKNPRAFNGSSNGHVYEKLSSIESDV
Experimental: (§1) Cell Culture and plating: HEK293 cells expressing NR1/NR2B (Chantest, Cleveland, Ohio) were grown to 70-80% confluency as an adherent monolayer in standard tissue culture flasks at 37° C., 5% CO2 per supplier's instructions. NR2B expression was induced by incubation with 0.3-0.4 μg/ml tetracycline in the presence of 4 mM ARL-15896 for 18-24 hours under the same growth conditions, then transferred to 30° C. for another 3-5 hours.
(§2) After induction, cell culture medium was removed and cells were rinsed once with Ca^2+ and Mg^2+-free Dulbecco's phosphate buffered saline. Cells were then removed from the flask using TrypLE™ Express (Life Technologies) according to the manufacturer's instructions and collected to 50 ml centrifuge tubes. Following two washes in Ca^2+/Mg^2+-free HBSS with 20 mM HEPES (HHnoCa), cells were counted and viability assessed using trypan blue. To load cells with Ca^2+-sensitive dye, they were resuspended in fluo-8 plus Component B (AAT Bioquest Products) diluted in HHnoCa and incubated 15 minutes at 37° C., followed by 30 minutes at room temp (in dark). Cells were then washed and resuspended in HHnoCa to remove extracellular dye and plated in 384-well plates (Falcon, uncoated) at 20,000-30,000 cells/well in a final volume of 25 μl/well.
(§3) FDSS Assay: To each well of the plate, 10 μL test compound, control (MK801) or HHnoCa buffer was added to a final concentration of 10 μM with a final concentration of DMSO of 0.1%. Following 10 minutes pre-incubation in the dark, plates are loaded onto the Hamamatsu FDSS 6000. After collecting baseline fluorescence images, 3 μM glutamate, 3 glycine, and 1 mM Ca^2+ in HHnoCa buffer is added to each well, and Ca^2+ is recorded for 3 minutes. Data were processed by computing ratio of fluorescence at the end of data collection to baseline fluorescence to assess degree of Ca′ influx inhibition relative to that observed in MK801.

NR1/NR2B [2] = target: NR1/NR2B (Homo sapiens (Human), UniProt Q13224); experiment: as above; details: read-out: NR2B NAM IC50
Sequence of NR1/NR2B (Homo sapiens (Human), UniProt Q13224) (Q13224 27-1484, other chains not shown): as above
Experimental: as §1, §2, §3

[3] = HEK293 cells expressing NR1/NR2B, Ca2+ influx, binned NR2B NAM IC50
[4] = HEK293 cells expressing NR1/NR2B, Ca2+ influx

| SMILES | IC50 (NR1/NR2B [1]; [3]) [µM] | IC50 (NR1/NR2B [2]; [4]) [µM] | IC50 (NR1/NR2B [1]) [µM] | IC50 (NR1/NR2B [2]) [µM] |
| --- | --- | --- | --- | --- |
| Cc1ccccc1[C@]1(O)C[C@H]2CN(C(=O)Nc3ccccc3)C[C@H]2C1 [Example 30, 5-hydroxy-5-(2-methylphenyl)-N-phenyl-octahydrocyclopenta[c] pyrrole-2-carboxamide] |  |  | > 10 | 10 |
| O=C(CN1C[C@@H]2C[C@@](O)(CC3CC3)C[C@@H]2C1)c1ccc(O)cn1 [Example 207, 2-((3aR,5r,6aS)-5-(cyclopropylmethyl)-5-hydroxyhexahydrocyclo-penta[c]pyrrol-2(1H)-yl)-1-(5-hydroxypyridin-2-yl)ethanone] | > 10 | 10 |  |  |
| CC(C)(C)C(=O)Nc1ccc(C(=O)CN2C[C@@H]3C[C@@](O)(Cc4ccccc4)C[C@@H]3C2)cn1 [Example 285, N-(5-(2-(5-benzyl-5-hydroxyhexahydrocyclo-penta[c]pyrrol-2(1H)-yl)acetyl)pyridin-2-yl)pivalamide] | > 10 | 10 |  |  |
| CO[C@@]1(Cc2ccccc2)C[C@H]2CN(CC(=O)c3ccc(O)c(F)n3)C[C@H]2C1 [Example 197, 2-((3aR,5r,6aS)-5-benzyl-5-methoxyhexahydrocyclo-penta[c]pyrrol-2(1H)-yl)-1-(6-fluoro-5-hydroxypyridin-2-yl)ethanone] | > 10 | 10 |  |  |
| CC(C)(C)c1ccc([C@]2(O)C[C@H]3CN(C(=O)Nc4cccc(Cl)c4)C[C@H]3C2)cc1 [Example 56, 5-(4-tert-butylphenyl)-N-(3-chlorophenyl)-5-hydroxy-octahydrocyclopenta[c] pyrrole-2-carboxamide] | > 10 | 10 |  |  |
| COC(=O)c1ccc(NC(=O)N2C[C@H]3C[C@@H](c4ccccc4)C[C@H]3C2)cc1 [Example 103, methyl 4-[({5-phenyl-octahydrocyclopenta[c]pyrrol-2-yl}carbonyl)amino]benzo-ate] | > 10 | 10 |  |  |
| COc1ccc(-c2ccc(C(=O)CN3C[C@@H]4C[C@@](O)(Cc5ccccc5)C[C@@H]4C3)cc2)cc1 [Example 259, 2-((3aR,5r,6aS)-5-benzyl-5-hydroxyhexahydrocyclo-penta[c]pyrrol-2(1H)-yl)-1-(4′-methoxy-[1,1′-biphenyl]-4-yl)ethanone] | > 10 | 10 |  |  |
| Cc1ccc(NC(=O)N2C[C@@H]3C[C@@](O)(c4ccc(F)cc4)C[C@@H]3C2)cc1 [Example 36, 5-(4-fluorophenyl)-5-hydroxy-N-(4-methylphenyl)-octahydrocyclopenta[c] pyrrole-2-carboxamide] | > 10 | 10 |  |  |
| O=C(CN1C[C@@H]2C[C@@](O)(Cc3ccccc3)C[C@@H]2C1)c1cccc(-c2ccc(O)cc2)c1 [Example 275, 2-((3aR,5r,6aS)-5-benzyl-5-hydroxyhexahydrocyclo-penta[c]pyrrol-2(1H)-yl)-1-(4′-hydroxy-[1,1′-biphenyl]-3-yl)ethanone] | > 10 | 10 |  |  |
| COc1ccc(NC(=O)N2C[C@@H]3C[C@@](O)(c4ccccc4)C[C@@H]3C2)cc1 [Example 1, 5-hydroxy-N-(4-methoxyphenyl)-5-phenylhexahydrocyclopenta[c]pyrrole-2(1H)-carboxamide] | > 10 | 10 |  |  |
| Cc1ccccc1-c1ccc(C(=O)CN2C[C@@H]3C[C@@](O)(Cc4ccccc4)C[C@@H]3C2)cc1 [Example 260, 2-((3aR,5r,6aS)-5-benzyl-5-hydroxyhexahydrocyclo-penta[c]pyrrol-2(1H)-yl)-1-(2′-methyl-[1,1′-biphenyl]-4-yl)ethanone] | > 10 | 10 |  |  |
| O=C(CN1C[C@@H]2C[C@@](O)(Cc3ccccc3)C[C@@H]2C1)c1ccc(-c2ccc(F)cc2)cc1 [Example 262, 2-((3aR,5r,6aS)-5-benzyl-5-hydroxyhexahydrocyclo-penta[c]pyrrol-2(1H)-yl)-1-(4′-fluoro-[1,1′-biphenyl]-4-yl)ethanone] | > 10 | 10 |  |  |

Further lines, with some results ahead:

| IC50 (NR1/NR2B [1]; [3]) [µM] | IC50 (NR1/NR2B [2]; [4]) [µM] | SMILES | IC50 (NR1/NR2B [1]) [µM] | IC50 (NR1/NR2B [2]) [µM] |
| --- | --- | --- | --- | --- |
| > 10 | 10 | O=C(CN1C[C@@H]2C[C@@](O)(Cc3ccccc3)C[C@@H]2C1)c1cccc(-c2ccccc2)c1 [Example 268, 1-([1,1′-biphenyl]-3-yl)-2-((3aR,5r,6aS)-5-benzyl-5-hydroxyhexahydrocyclo-penta[c]pyrrol-2(1H)-yl)ethanone] |  |  |
| > 10 | 10 | COc1cccc(-c2ccc(C(=O)CN3C[C@@H]4C[C@@](O)(Cc5ccccc5)C[C@@H]4C3)cc2)c1 [Example 265, 2-((3aR,5r,6aS)-5-benzyl-5-hydroxyhexahydrocyclo-penta[c]pyrrol-2(1H)-yl)-1-(3′-methoxy-[1,1′-biphenyl]-4-yl)ethanone] |  |  |
| > 10 | 10 | Cc1ccccc1[C@]1(O)C[C@H]2CN(c3ccccn3)C[C@H]2C1 [Example 82, 5-(2-methylphenyl)-2-(pyridin-2-yl)-octahydrocyclopenta[c] pyrrol-5-ol] |  |  |
| > 10 | 10 | O=C(CN1C[C@@H]2C[C@@](O)(Cc3ccccc3)C[C@@H]2C1)c1ccc(O)nc1 [Example 178, 2-[(3aR,5R,6aS)-5-benzyl-5-hydroxy-octahydrocyclopenta[c]pyrrol-2-yl]-1-(6-hydroxypyridin-3-yl)ethan-1-one] |  |  |
| > 10 | 10 | O=C(Nc1ccccc1)N1C[C@H]2C[C@@H](c3ccccc3)C[C@H]2C1 [Example 102, N,5-diphenyl-octahydrocyclopenta[c] pyrrole-2-carboxamide] |  |  |
| > 10 | 10 | COc1cccc(NC(=O)N2C[C@H]3C[C@@H](c4ccccc4)C[C@H]3C2)c1 [Example 104, N-(3-methoxyphenyl)-5-phenyl-octahydrocyclopenta[c] pyrrole-2-carboxamide] |  |  |
| > 10 | 10 | CC(C)(C)c1ccc([C@]2(O)C[C@H]3CN(C(=O)Nc4ccc(Cl)c(C(F)(F)F)c4)C[C@H]3C2)cc1 [Example 53] |  |  |
| > 10 | 10 | Cc1ccc(NC(=O)N2C[C@H]3C[C@@H](c4ccccc4)C[C@H]3C2)c(C)c1 [Example 110, N-(2,4-dimethylphenyl)-5-phenyl-octahydrocyclopenta[c] pyrrole-2-carboxamide] |  |  |
| 0.1 to 1 | 0.965 | O=C(CN1C[C@@H]2C[C@@](O)(Cc3ccccn3)C[C@@H]2C1)c1ccc(O)cc1 [Example 231, 2-((3aR,5r,6aS)-5-hydroxy-5-(pyridin-2-ylmethyl)hexahydro-cyclopenta[c]pyrrol-2(1H)-yl)-1-(4-hydroxyphenyl)ethanone] |  |  |
| > 10 | 10 | O=C(CN1C[C@@H]2C[C@@](O)(Cc3ccccc3)C[C@@H]2C1)c1ccc(-c2ccc(O)cc2)cc1 [Example 257, 2-((3aR,5r,6aS)-5-benzyl-5-hydroxyhexahydrocyclo-penta[c]pyrrol-2(1H)-yl)-1-(4′-hydroxy-[1,1′-biphenyl]-4-yl)ethanone] |  |  |
| > 10 | 10 | COc1cccc([C@]2(O)C[C@H]3CN(CC(=O)c4cccc(F)c4)C[C@H]3C2)c1 [Example 62, 1-(3-fluorophenyl)-2-[5-hydroxy-5-(3-methoxyphenyl)-octahydrocyclopenta[c]pyrrol-2-yl]ethan-1-one] |  |  |
| > 10 | 10 | O=C(CN1C[C@@H]2C[C@@](O)(Cc3ccccc3)C[C@@H]2C1)c1ccc(O)c(F)n1 [Example 190, 2-((3aR,5r,6aS)-5-benzyl-5-hydroxyhexahydrocyclo-penta[c]pyrrol-2(1H)-yl)-1-(6-fluoro-5-hydroxypyridin-2-yl)ethanone] |  |  |
| > 10 | 10 | Cc1ccc(NC(=O)N2C[C@@H]3C[C@@](O)(Cc4ccccc4)C[C@@H]3C2)cc1 [Example 125, (3aR,5r,6aS)-5-benzyl-5-hydroxy-N-(p-tolyl) hexahydrocyclopenta [c]pyrrole-2(1H)-carboxamide] |  |  |
| 1 to 10 | 7.05 | O=C(CCN1C[C@@H]2C[C@@](O)(Cc3ccccc3)C[C@@H]2C1)c1ccc(O)cc1 [Example 133, 3-((3aR,5r,6S)-5-benzyl-5-hydroxyhexahydrocyclo-penta[c]pyrrol-2(1H)-yl)-1-(4-hydroxyphenyl)propan-1-one] |  |  |
| < 0.1 | 0.0388 | O=C(CN1C[C@H]2C[C@@H](Cc3ccccc3)C[C@H]2C1)c1ccc(O)cc1 [Example 303, 2-[(3aR,5S,6aS)-5-benzyl-octahydrocyclopenta[c]pyrrol-2-yl]-1-(4-hydroxyphenyl)ethan-1-onefluorophenol] |  |  |
| 0.1 to 1 | 0.324 | Oc1ccc([C@H](O)CN2C[C@@H]3C[C@](F)(Cc4ccccc4)C[C@@H]3C2)cc1 [Example 315, 4-((S)-2-((3aR,5R,6aS)-5-benzyl-5-fluoro-hexahydrocyclopen-ta[c]pyrrol-2(1H)-yl)-1-hydroxyethyl)phenol] |  |  |
| < 0.1 | 0.0412 | O=C(CN1C[C@H]2C[C@@H](Cc3ccccc3)C[C@H]2C1)c1ccc(O)c(F)c1 [Example 307, 2-[(3aR,5S,6aS)-5-benzyl-octahydrocyclopenta[c]pyrrol-2-yl]-1-(3-fluoro-4-hydroxyphenyl) ethan-1-one] |  |  |
| 0.1 to 1 | 0.326 | CS(=O)(=O)Nc1ccc(C(=O)CN2C[C@@H]3C[C@@](O)(Cc4ccccc4)C[C@@H]3C2)cc1 [Example 146, N-(4-(2-((3aR,5r,6aS)-5-benzyl-5-hydroxyhexahydrocyclo-penta[c]pyrrol-2(1H)-yl)acetyl)phenyl)methane-sulfonamide] |  |  |
